Laboratory results reported in patent publication US20250326748A1, “COMPOUNDS AND METHODS FOR MODULATING SPLICING” (REMIX THERAPEUTICS INC., priority 2022, published 2025).
Counter-ions that a name gives are not always drawn. Like-named read-outs stand apart in the source and are kept apart here.

Key:
[1] = system: K562 cells; assay: Cell viability, Cell Titer Glo 2.0 assay, K562; details: 72 hours
Description: Compounds described herein were screened for toxicity in K562 (human chronic myelogenous leukemia) and SH-SY5Y (human neuroblastoma) cells using a Cell Titer Glo 2.0 assay.
• Promega CellTiter-Glo® 2.0 Cell Viability Assay (cat #G9241) • Corning 384-well TC-treated microplates (cat #3570)
Cells were plated at 500 cells/well (K562 cells) in 45 μL of IMDM supplemented with 10% FBS in a 384-well opaque plate. Wells containing only medium were used as a blank control. Test compounds (e.g., compounds of Formula (I) or (II)) were first serially diluted in DMSO then diluted 1:100 with IMDM+10% FBS. The final concentration of DMSO was 0.1% in each well. The cells were incubated for 72 hours at 37° C. and 5% CO2 before assaying with Cell Titer Glo 2.0 reagent.

[2] = system: Target C mRNA; assay: Splicing RT-qPCR panel, Target C canonical junction (CJ) mRNA; type: cell-based, human; details: Homo sapiens, read-out: Target C CJ (decrease in CJ mRNA levels, IC50)
Description: (§1) Compounds described herein were used to modulate RNA transcript abundance in cells. The expression of a target mRNA was measured by detecting the formation of an exon-exon junction in the canonical transcript (CJ). A compound mediated exon-inclusion event was detected by observing an increase in formation of a new junction with an alternative exon (AJ). Real-time qPCR assays were used to detect these splicing switches and interrogate the potency of various compounds towards different target genes. A high-throughput real time quantitative PCR (RT-qPCR) assay was developed to measure these two isoforms of the mRNA (CJ and AJ) for exemplary genes, such as HTT, SMN2, and MYB, together with a control housekeeping gene, GAPDH or GUSB or PPIA, used for normalization. Briefly, the A673 or K562 cell line was treated with various compounds described herein (e.g., compounds of Formula (D). After treatment, the levels of the HTT, MYB, or SMN2 mRNA targets were determined from each sample of cell lysate by cDNA synthesis followed by qPCR.
(§2) The A673 cell line was cultured in DMEM with 10% FBS. Cells were diluted with full growth media and plated in a 96-well plate (15,000 cells in 100 ul media per well). The plate was incubated at 37° C. with 5% CO2 for 24 hours to allow cells to adhere. An 11-point 3-fold serial dilution of the compounds was made in DMSO then diluted in media in an intermediate plate. Compounds were transferred from the intermediate plate to the cell plate with the top dose at a final concentration of 10 uM in the well. Final DMSO concentration was kept at or below 0.25%. The cell plate was returned to the incubator at 37° C. with 5% CO2 for an additional 24 hours.
(§3) The K562 cell line was cultured in IMDM with 10% FBS. For K562, cells were diluted with full growth media and plated in either a 96-well plate (50,000 cells in 50 uL media per well) or a 384-well plate (8,000-40,000 cells in 45 uL media per well). An 11-point 3-fold serial dilution of the compounds were made in DMSO then diluted in media in an intermediate plate. Compound was transferred from the intermediate plate to the cell plate with the top dose at a final concentration of 10 uM in the well. Final DMSO concentration was kept at or below 0.25%. Final volume was 100 uL for 96-well plate and 50 uL for 384-well plate. The cell plate was then placed in an incubator at 37° C. with 5% CO2 for 24 hours.
(§4) The cells were then gently washed with 50 uL-100 uL cold PBS before proceeding to addition of lysis buffer. 30 uL-50 μL of room temperature lysis buffer with DNAse I (and optionally RNAsin) was added to each well. Cells were shaken/mixed thoroughly at room temperature for 5-10 minutes for lysis to take place and then 3 uL-5 μL of room temperature stop solution was added and wells were shaken/mixed again. After 2-5 minutes, the cell lysate plate was transferred to ice for RT-qPCR reaction setup. The lysates could also be frozen at −80° C. for later use.
(§5) In some cases, a direct lysis buffer was used. An appropriate volume of 3× lysis buffer (10 mM Tris, 150 mM NaCl, 1.5%-2.5% Igepal and 0.1-1 U/uL RNAsin, pH 7.4) was directly added to either K562 or A673 cells in media and mixed by pipetting 3 times. The plates were then incubated at room temperature with shaking/rocking for 20-50 minutes to allow for lysis to take place. After this time, the cell lysate plate was transferred to ice to set up for the RT-qPCR reactions. The lysates could also be frozen at −80° C. for later use.
(§6) To set up 10 uL RT-qPCR reactions, cell lysates were transferred to 384-well qPCR plates containing the master mix according to the table below. The plates were sealed, gently vortexed, and spun down before the run. The volumes were adjusted accordingly in some instances where the reaction was carried in 20 μL. The table below summarizes the components of the RT-qPCR reactions:
(§7) The RT-qPCR reaction was performed using a QuantStudio (ThermoFisher) under the following fast cycling conditions. […]

[3] = system: MYB mRNA; assay: Splicing RT-qPCR assay, MYB canonical (CJ) and alternative (AJ) junction mRNA; type: cell-based, human; details: Homo sapiens; for IC50: canonical junction mRNA; for AC50: alternative junction mRNA, read-out: MYB AJ (AC50, increase in AJ mRNA)
Description: as §1
(§8) • Cells-to-CT 1-step kit: ThermoFisher A25602, Cells-to-CT lysis reagent: ThermoFisher 4391851C, TaqMan™ Fast Virus 1-Step Master Mix: ThermoFisher 4444436 • GAPDH: VIC-PL, ThermoFisher 4326317E (Assay: Hs99999905_m1)—used for K562/suspension cell lines • GUSB: VIC-PL, ThermoFisher 4326320E (Assay: Hs99999908_m1)—used for K562/suspension cell lines • PPIA: VIC-PL, ThermoFisher 4326316E (Assay: Hs99999904_m1)—used for A673/adherent cell lines
as §2, §3, §4
as §5, with “use. […]” for “use.”

[4] = system: SMN2 mRNA; assay: Splicing RT-qPCR panel, SMN2 canonical junction (CJ) mRNA; type: cell-based, human; details: Homo sapiens, read-out: SMN2 CJ (decrease in CJ mRNA levels, IC50)
Description: as §1, §2, §3, §4, §5, §6, §7

[5] = system: HTT mRNA; assay: Splicing RT-qPCR assay, HTT canonical (CJ) and alternative (AJ) junction mRNA; type: cell-based, human; details: Homo sapiens; for IC50: canonical junction mRNA; for AC50: alternative junction mRNA, read-out: HTT AJ (AC50, increase in AJ mRNA)
Description: as §1, §8, §2, §3, §4
as §5, with “use. […]” for “use.”

[6] = qPCR panel, read-out: MYB CJ (decrease in CJ mRNA levels, IC50)
[7] = RT-qPCR, A673 or K562 cells, 24 hours treatment
[8] = RT-qPCR, A673 or K562 cells, 24 hours treatment, read-out: MYB CJ (IC50, decrease in CJ mRNA)
[9] = 24 h, RT-qPCR, A673 or K562 cells, 24 hours treatment, read-out: HTT CJ (IC50, decrease in CJ mRNA)
[10] = qPCR panel, read-out: HTT CJ (decrease in CJ mRNA levels, IC50)

SMILES	IC50 [2] [nM]	IC50 [3, 6] [nM]	IC50 [3, 8] [nM]	IC50 [4] [nM]	IC50 [5, 9] [nM]	IC50 [5, 10] [nM]	Effect on Cell Viability, K562 [1]	AC50 [3, 7] [nM]	AC50 [5, 7] [nM]
Cc1cn2cc(-c3cc(Cl)c4cc(N5C[C@@H](C)NC6(CC6)C5)cnc4n3)cc(F)c2n1 [Compound 402]	> 10000	100 to 1000	100 to 1000	< 100	> 10000	> 10000	C (1000-9999 nM)	100 to 1000	> 10000
C[C@@H]1CN(c2cnc3nc(-c4cc(F)c5nn(C)cc5c4)cc(Cl)c3c2)CC2(CC2)N1 [Compound 397]	> 10000	100 to 1000	100 to 1000	< 100	1000 to 10000	1000 to 10000	C (1000-9999 nM)	1000 to 10000	> 10000
Cc1cn2cc(-c3cc(Cl)c4cc(N5C[C@H](C)NC6(CC6)C5)cnc4n3)cc(F)c2n1 [Compound 401]	1000 to 10000	100 to 1000	100 to 1000	< 100	1000 to 10000	1000 to 10000	C (1000-9999 nM)	100 to 1000	1000 to 10000
CN1CCC[C@H]2CN(c3cnc4nc(-c5cc6cn(C)nc6cc5O)cc(Cl)c4c3)C[C@H]21 [Compound 372, 5-{6-[(4aS,7aS)-1-methyl-hexahydro-2H-pyrrolo[3,4-b]pyridin-6-yl]-4-chloro-1,8-naphthyridin-2-yl}-2-methylindazol-6-ol]	> 10000	100 to 1000	100 to 1000	< 100	> 10000	> 10000	B (100-1000 nM)	100 to 1000	> 10000
C[C@@H]1CN(c2cnc3nc(-c4cc5cn(C)nc5cc4O)cc(C4CC4)c3c2)C[C@H](C)N1 [Compound 364, 5-{4-cyclopropyl-6-[(3R,5S)-3,5-dimethylpiperazin-1-yl]-1,8-naphthyridin-2-yl}-2-methylindazol-6-ol hydrochloride]	100 to 1000	< 100	< 100	< 100	< 100	< 100	C (1000-9999 nM)	100 to 1000	100 to 1000
CN(c1cnc2nc(-c3cc(F)c4nn(C)cc4c3)ccc2c1)[C@@H]1CCNC1 [Compound 366, 7-(7-fluoro-2-methylindazol-5-yl)-N-methyl-N-[(3R)-pyrrolidin-3-yl]-1,8-naphthyridin-3-amine]	> 10000	1000 to 10000	1000 to 10000	100 to 1000	> 10000	> 10000	C (1000-9999 nM)	100 to 1000	> 10000
C[C@H]1CN(c2cnc3nc(-c4cc(F)c5nn(C)cc5c4)cc(Cl)c3c2)CC2(CC2)N1 [Compound 396]	1000 to 10000	100 to 1000	100 to 1000	< 100	1000 to 10000	1000 to 10000	C (1000-9999 nM)	100 to 1000	1000 to 10000
C[C@H]1CN(c2cnc3nc(-c4cc5cn(C)nc5cc4O)cc(Cl)c3c2)C[C@H](C)N1C [Compound 404, 5-{4-chloro-6-[(3S,5S)-3,4,5-trimethylpiperazin-1-yl]-1,8-naphthyridin-2-yl}-2-methylindazol-6-ol]	1000 to 10000	100 to 1000	100 to 1000	< 100	1000 to 10000	1000 to 10000	B (100-1000 nM)	100 to 1000	1000 to 10000
COc1nc(-c2cc(Cl)c3cc(N4C[C@H](C)N[C@@H](C)C4)cnc3n2)cn2cc(C)nc12 [Compound 403, 4-chloro-6-[(3S,5S)-3,5-dimethylpiperazin-1-yl]-2-{8-methoxy-2-methylimidazo[1,2-a]pyrazin-6-yl}-1,8-naphthyridine]	> 10000	1000 to 10000	1000 to 10000	100 to 1000	> 10000	> 10000	C (1000-9999 nM)	100 to 1000	> 10000

Now from value to compound, other results behind:

IC50 [2] [nM]	IC50 [3, 6] [nM]	IC50 [3, 8] [nM]	IC50 [4] [nM]	IC50 [5, 9] [nM]	IC50 [5, 10] [nM]	SMILES	Effect on Cell Viability, K562 [1]	AC50 [3, 7] [nM]	AC50 [5, 7] [nM]
1000 to 10000	100 to 1000	100 to 1000	< 100	100 to 1000	100 to 1000	COc1cc(-c2cc3cn(C)nc3c(C)c2O)nc2ncc(N3CCNCC3)cc12 [Compound 152, 5-(4-methoxy-6-(piperazin-1-yl)-1,8-naphthyridin-2-yl)-2,7-dimethyl-2H-indazol-6-ol 2,2,2-trifluoroacetate]	B (100-1000 nM)	100 to 1000	1000 to 10000
1000 to 10000	100 to 1000	< 100	< 100	1000 to 10000	1000 to 10000	Cc1c(O)c(-c2ccc3c(Cl)c(N4C[C@@H](C)N[C@@H](C)C4)cnc3n2)cc2cn(C)nc12 [Compound 390]	A (<100 nM)	< 100	> 10000
1000 to 10000	100 to 1000	100 to 1000	< 100	1000 to 10000	1000 to 10000	COc1nc(-c2cc3cn(C)nc3c(C)c2O)nc2ncc(N3C[C@@H](C)N[C@@H](C)C3)cc12 [Compound 369]	B (100-1000 nM)	100 to 1000	1000 to 10000
1000 to 10000	< 100	< 100	< 100	100 to 1000	100 to 1000	Cc1c(O)c(-c2ccc3c(Cl)c(N4C[C@H](C)N[C@@H](C)C4)cnc3n2)cc2cn(C)nc12 [Compound 394]	B (100-1000 nM)	< 100	100 to 1000
